Here are results for four molecules from ChEMBL document CHEMBL2074142, “Interaction of anionic cephalosporins with the intestinal and renal peptide transporters PEPT 1 and PEPT 2” (Biochim Biophys Acta, 1997).

One may read the Ki as the equilibrium dissociation constant of an inhibitor or competing ligand from its target. Higher therefore signals lower affinity. What is called IC50 is the point on the concentration scale where inhibition reaches its midpoint. Low values mean higher potency, high ones lower potency. One may read the inhibition as the share of the control response that was lost under treatment. In general, Km refers to the substrate concentration at which the rate is half of its maximum.

What all share (format): functional, cell-based
In data set [1] the target is T1, Solute carrier family 15 member 2 (Rattus norvegicus, UniProt Q63424).
T1 sequence (Q63424 whole entry): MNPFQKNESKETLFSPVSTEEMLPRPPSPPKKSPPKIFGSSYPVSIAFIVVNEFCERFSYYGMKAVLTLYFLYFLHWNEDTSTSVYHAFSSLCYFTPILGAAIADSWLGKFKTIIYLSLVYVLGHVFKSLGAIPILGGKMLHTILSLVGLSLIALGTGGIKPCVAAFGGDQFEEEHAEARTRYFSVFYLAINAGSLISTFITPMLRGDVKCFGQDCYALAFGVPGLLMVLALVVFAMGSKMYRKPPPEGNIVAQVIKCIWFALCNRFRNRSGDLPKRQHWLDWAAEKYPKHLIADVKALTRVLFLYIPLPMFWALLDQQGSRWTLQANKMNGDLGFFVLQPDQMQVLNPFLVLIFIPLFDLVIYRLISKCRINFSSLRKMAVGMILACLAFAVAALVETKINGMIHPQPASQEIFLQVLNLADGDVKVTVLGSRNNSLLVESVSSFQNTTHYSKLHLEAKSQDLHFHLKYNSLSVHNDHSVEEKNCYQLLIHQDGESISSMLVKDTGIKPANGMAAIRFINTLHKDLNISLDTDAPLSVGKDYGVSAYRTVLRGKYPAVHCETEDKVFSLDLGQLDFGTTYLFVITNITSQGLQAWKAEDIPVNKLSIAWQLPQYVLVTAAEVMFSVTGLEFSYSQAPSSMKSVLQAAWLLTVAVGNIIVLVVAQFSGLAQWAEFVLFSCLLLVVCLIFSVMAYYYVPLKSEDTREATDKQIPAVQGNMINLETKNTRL
The experiment in a line: TP_TRANSPORTER: inhibition of Gly-Sar uptake in SKPT cells.

Data set [2] addresses T2, Solute carrier family 15 member 1 (Homo sapiens, UniProt P46059).
T2 sequence (P46059 whole entry): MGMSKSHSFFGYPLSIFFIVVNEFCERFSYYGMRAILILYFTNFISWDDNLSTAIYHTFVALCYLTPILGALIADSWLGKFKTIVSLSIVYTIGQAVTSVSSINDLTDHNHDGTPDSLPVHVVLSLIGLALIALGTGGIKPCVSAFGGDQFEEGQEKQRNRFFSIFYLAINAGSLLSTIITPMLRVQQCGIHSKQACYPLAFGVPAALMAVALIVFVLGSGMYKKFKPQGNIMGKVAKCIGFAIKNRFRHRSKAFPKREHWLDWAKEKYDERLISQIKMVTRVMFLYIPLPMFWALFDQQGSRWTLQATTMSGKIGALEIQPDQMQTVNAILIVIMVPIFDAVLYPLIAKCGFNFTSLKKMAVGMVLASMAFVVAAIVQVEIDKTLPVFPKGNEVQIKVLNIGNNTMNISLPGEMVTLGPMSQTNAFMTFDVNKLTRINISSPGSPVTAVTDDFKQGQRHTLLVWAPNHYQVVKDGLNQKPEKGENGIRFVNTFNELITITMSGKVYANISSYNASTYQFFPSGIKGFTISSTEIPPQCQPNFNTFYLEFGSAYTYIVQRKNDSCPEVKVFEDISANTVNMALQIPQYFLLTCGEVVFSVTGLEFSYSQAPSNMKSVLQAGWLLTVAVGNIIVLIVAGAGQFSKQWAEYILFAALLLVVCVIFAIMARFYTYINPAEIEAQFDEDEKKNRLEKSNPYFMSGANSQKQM
The experiment in a line: TP_TRANSPORTER: inhibition of Gly-Sar uptake in Caco-2 cells.

Data set [3] deals with T3, Solute carrier family 15 member 2 (Homo sapiens, UniProt Q16348).
T3 sequence (Q16348 whole entry): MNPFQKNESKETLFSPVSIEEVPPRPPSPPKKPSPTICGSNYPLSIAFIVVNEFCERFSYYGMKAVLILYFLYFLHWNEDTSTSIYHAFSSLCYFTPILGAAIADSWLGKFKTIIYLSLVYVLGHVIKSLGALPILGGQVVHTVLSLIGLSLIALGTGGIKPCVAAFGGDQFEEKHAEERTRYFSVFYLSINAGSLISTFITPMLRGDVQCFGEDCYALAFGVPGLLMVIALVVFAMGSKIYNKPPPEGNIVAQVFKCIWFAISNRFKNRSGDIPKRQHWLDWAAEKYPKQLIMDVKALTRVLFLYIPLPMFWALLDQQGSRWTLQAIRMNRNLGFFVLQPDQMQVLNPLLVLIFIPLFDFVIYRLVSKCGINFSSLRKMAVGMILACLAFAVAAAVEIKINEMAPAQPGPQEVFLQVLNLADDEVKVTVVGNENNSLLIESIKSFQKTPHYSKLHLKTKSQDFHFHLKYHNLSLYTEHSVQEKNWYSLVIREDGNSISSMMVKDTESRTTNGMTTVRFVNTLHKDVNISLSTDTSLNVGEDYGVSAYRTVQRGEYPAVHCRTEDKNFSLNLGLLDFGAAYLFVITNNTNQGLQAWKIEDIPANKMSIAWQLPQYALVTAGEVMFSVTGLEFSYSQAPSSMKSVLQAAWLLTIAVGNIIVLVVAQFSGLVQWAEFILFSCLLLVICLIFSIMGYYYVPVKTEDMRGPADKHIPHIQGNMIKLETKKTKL
Put plainly: TP_TRANSPORTER: inhibition of Gly-Sar uptake in PEPT2-expressing HeLa cells.

Data set [4] addresses T2, Solute carrier family 15 member 1. Put plainly: TP_TRANSPORTER: inhibition of Gly-Sar uptake in PEPT1-expressing HeLa cells.
Data set [5] addresses T1, Solute carrier family 15 member 2. The experiment in a line: TP_TRANSPORTER: inhibition of Gly-Sar uptake (Gly-Sar: 5 uM) in SKPT cells.
Data set [6] deals with T2, Solute carrier family 15 member 1. Put plainly: TP_TRANSPORTER: inhibition of Gly-Sar uptake (Gly-Sar: 5 uM) in Caco-2 cells.
Data set [7] deals with T4, Solute carrier family 15 member 1 (Homo sapiens) (UniProt P46059).
T4 sequence (whole entry): T2 sequence (P46059 whole entry)
Put plainly: TP_TRANSPORTER: inhibition of Gly-Sar uptake (Gly-Sar: 20 uM, Cefixime: 10000 uM) in PEPT1-expressing HeLa cells.

Data set [8] concerns the target T5, Solute carrier family 15 member 2 (Homo sapiens) (UniProt Q16348).
T5 sequence (whole entry): T3 sequence (Q16348 whole entry)
Put plainly: TP_TRANSPORTER: inhibition of Gly-Sar uptake (Gly-Sar: 50 uM, Cefixime: 10000 uM) in PEPT2-expressing HeLa cells.

Data set [9] has as its target T4, Solute carrier family 15 member 1 (Homo sapiens). The experiment in a line: TP_TRANSPORTER: inhibition of Gly-Sar uptake (Gly-Sar: 20 uM, Cefdinir: 10000 uM) in PEPT1-expressing HeLa cells.
The target in data set [10] is T5, Solute carrier family 15 member 2 (Homo sapiens). The experiment in a line: TP_TRANSPORTER: inhibition of Gly-Sar uptake (Gly-Sar: 50 uM, Cefdinir: 10000 uM) in PEPT2-expressing HeLa cells.
Substrate in data set [11]: CN(CC(=O)O)C(=O)CN
Put plainly: TP_TRANSPORTER: uptake in SKPT cells.

Turning to `Nc1nc(/C(=C/CC(=O)O)C(=O)N[C@@H]2C(=O)N3C(C(=O)O)=CCS[C@H]23)cs1` [CEFTIBUTEN], the Ki was found to be 380 µM in data set [1], 870 µM in data set [2], 90 µM in data set [3] and 710 µM in [4].

Regarding `C=CC1=C(C(=O)O)N2C(=O)[C@@H](NC(=O)/C(=N\OCC(=O)O)c3csc(N)n3)[C@H]2SC1` [CEFIXIME], the IC50 in data set [5] amounted to 3200 µM; in data set [6] it was 10000 µM. Besides, in data set [7], the inhibition is 44%. Further, the Activity in [8] was 0.54.

`C=CC1=C(C(=O)O)N2C(=O)[C@@H](NC(=O)/C(=N\O)c3csc(N)n3)[C@H]2SC1` [CEFDINIR]: the midpoint of inhibition in data set [5], the IC50, lay at 10000 µM. Besides, the inhibition in data set [9] was 31%. Further, the Activity in data set [10] was 0.48.

B1: Solute carrier family 15 member 2 (Rattus norvegicus), Q63424 (protein)
chain: T1 sequence (Q63424 whole entry)
For the molecule B1, the Km in data set [11] turned out to be 74.5 µM.
